Results: article PMC3973950, “Synthesis of 5-arylidine amino-1,3,4-thiadiazol-2-[(N-substituted benzyol)]sulphonamides endowed with potent antioxidants and anticancer activity induces growth inhibition in HEK293, BT474 and NCI-H226 cells” (Medicinal Chemistry Research, 2013)

What was measured:
[1] = Superoxide anion radical scavenging (NBT/NADH/PMS); assay type: biochemical; details: Conc. ± SD; standard catechin; read-out: IC50 inhibitory concentration, Superoxide anion
Procedure: Measurement of superoxide anion scavenging activity of the synthesized compound was taken based on the method described by Nishimiki et al. ([1972]) and slightly modified. […] The reaction mixture was incubated at 25 °C for 5 min, and the absorbance at 560 nm was measured against blank samples. Catechin was used as reference compound. All the experiments were performed in triplicate, and the results were averaged. The percentage of inhibition was determined by comparing the results of control and test samples. The IC50 (nM/mL) value are depicted in Table 1.

[2] = test system: root meristem cells of Allium cepa; assay: In vitro antimitotic activity and cytogenetic analysis, Allium cepa meristem root model; assay type: cell-based; details: for Aberrant cells (%) ± SEM / Chromosome breaks (%) ± SEM / MNC (‰) ± SEM (micronuclei per 1,000 cells) / Polar deviations (%) ± SEM / Stickiness (%) ± SEM / MI (%) ± SEM (mitotic index): compounds 1 mg/mL, PC (EMS) 2 × 10^−2 M; for MI (%) ± SEM (mitotic index): lower MI = higher activity, negative control 6.22
Outline: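 Onion roots (about 2–2.5 cm, five bulbs per sample) exposed to compound at 1 mg/mL at 22 ± 1 °C, with distilled water as negative and EMS (2 × 10^−2 M) as positive control. After 24 h, orcein-stained root tips were scored for mitotic index, chromatin aberrations and micronuclei per 1,000 cells. Root length at 72 h served as the general toxicity index, expressed as percentage of controls.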

[3] = In vitro cytotoxicity by MTT assay, NCI-H226; assay type: cell-based; details: human, NCI-H226 lung cancer cells, 0.015 μM, read-out: % Cytotoxicity (100 − % cell survival) of NCI-H226 cell line
Outline: (§1)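 After 72 h of compound exposure at 37 °C in 5 % CO2, MTT was added for 4 h and the propanol-solubilised formazan was read at 490 nm. Monolayers (~10,000 cells/well, RPMI-1640 plus 10 % newborn calf serum) had been allowed to form for 24 h beforehand.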

[4] = test system: NCI-H226 (lung cancer cell line); assay: In vitro cytotoxicity by MTT assay, NCI-H226; assay type: cell-based; details: Homo sapiens, 72 h, read-out: % Cytotoxicity (100 − % cell survival) of NCI-H226 cell line; for cytotoxicity at 0.005 µM: NCI-H226, 0.005 μM; for cytotoxicity at 0.045 µM: NCI-H226, 0.045 μM; for cytotoxicity at 0.13 µM: NCI-H226, 0.13 μM; for cytotoxicity at 0.41 µM: NCI-H226, 0.41 μM; for cytotoxicity at 1.23 µM: NCI-H226, 1.23 μM; for cytotoxicity at 3.7 µM: NCI-H226, 3.7 μM; for cytotoxicity at 11.11 µM: NCI-H226, 11.11 μM; for cytotoxicity at 33.33 µM: NCI-H226, 33.33 μM; for cytotoxicity at 100 µM: NCI-H226, 100 μM
Outline: as §1

| IC50 [1] [µM] | Aberrant cells (%) ± SEM [2] [%] | Chromosome breaks (%) ± SEM [2] [%] | Polar deviations (%) ± SEM [2] [%] | Stickiness (%) ± SEM [2] [%] | SMILES | MNC (‰) ± SEM (micronuclei per 1,000 cells) [2] | MI (%) ± SEM (mitotic index) [2] [%] | cytotoxicity at 72 h, 0.015 µM [3] [%] | cytotoxicity at 0.005 µM [4] [%] | cytotoxicity at 0.045 µM [4] [%] | cytotoxicity at 0.13 µM [4] [%] | cytotoxicity at 0.41 µM [4] [%] | cytotoxicity at 1.23 µM [4] [%] | cytotoxicity at 3.7 µM [4] [%] | cytotoxicity at 11.11 µM [4] [%] | cytotoxicity at 33.33 µM [4] [%] | cytotoxicity at 100 µM [4] [%] | average root length ([2]; after 72 h of treatment, negative control 3.93 cm) [cm] |
| --- | --- | --- | --- | --- | --- | --- | --- | --- | --- | --- | --- | --- | --- | --- | --- | --- | --- | --- |
| 152 ± 14.4 | 19.28 ± 5.22 | 6.22 ± 1.02 | 8.62 ± 2.16 | 6.64 ± 2.38 | O=C(NS(=O)(=O)c1nnc(N=Cc2ccccc2)s1)c1ccccc1 [Compound 9a, N-{[5-(Benzylidenamino)-1,3,4-thiadiazol-2-yl]sulphonyl} benzamide] | 0.34 ± 0.15 ‰ | 3.22 ± 0.16 | 34.8 | 33.3 | 35.3 | 36.1 | 37 | 37.9 | 38.1 | 39.1 | 41.1 | 42.4 | – |
| 74.5 ± 8.3 | 25.33 ± 9.42 | 0.96 ± 0.46 | 9.15 ± 6.92 | 14.48 ± 2.52 | COc1ccc(C=Nc2nnc(S(=O)(=O)NC(=O)c3ccccc3)s2)cc1 [Compound 9d, N-({5-[(4-Methoxybenzylidene)amino]-1,3,4-thiadiazol-2-yl}sulfonyl)benzamide] | 0.51 ± 0.17 ‰ | 2.34 ± 0.19 | 36.3 | 35.6 | 37.5 | 38.3 | 40.6 | 41.2 | 43.1 | 47.8 | 48.2 | 53 | – |
| 36.7 ± 14.4 | 33.41 ± 9.47 | 1.47 ± 0.13 | 7.33 ± 2.52 | 21.96 ± 7.22 | O=C(NS(=O)(=O)c1nnc(N=Cc2ccccc2O)s1)c1ccccc1 [Compound 9f, N-({5-[(2-Hydroxybenzylidene)amino]-1,3,4-thiadiazol-2-yl}sulfonyl)benzamide] | 0.39 ± 0.20 ‰ | – | 31.2 | 30.3 | 32.4 | 33.4 | 35 | 35.7 | 36.9 | 37.1 | 38.7 | 40.4 | 1.06 |
